Among the data in BindingDB's records for patent US20240174674 (Applied Pharmaceutical Science, 2024) are IC50 values, retold here.

The target of test [1] is Proto-oncogene tyrosine-protein kinase receptor Ret [G810R] (Human, UniProt P07949, G810R). Nature of the test: HTRF Assay. Background: TR-FRET usually uses a lanthanide donor and a delayed reading to cut background.
Test [2] has as its target Proto-oncogene tyrosine-protein kinase receptor Ret [V804M] (Human, UniProt P07949, V804M). Kind of test: HTRF Assay.

Proto-oncogene tyrosine-protein kinase receptor Ret [G810R], sequence (P07949 29-1114 G810R limits assumed): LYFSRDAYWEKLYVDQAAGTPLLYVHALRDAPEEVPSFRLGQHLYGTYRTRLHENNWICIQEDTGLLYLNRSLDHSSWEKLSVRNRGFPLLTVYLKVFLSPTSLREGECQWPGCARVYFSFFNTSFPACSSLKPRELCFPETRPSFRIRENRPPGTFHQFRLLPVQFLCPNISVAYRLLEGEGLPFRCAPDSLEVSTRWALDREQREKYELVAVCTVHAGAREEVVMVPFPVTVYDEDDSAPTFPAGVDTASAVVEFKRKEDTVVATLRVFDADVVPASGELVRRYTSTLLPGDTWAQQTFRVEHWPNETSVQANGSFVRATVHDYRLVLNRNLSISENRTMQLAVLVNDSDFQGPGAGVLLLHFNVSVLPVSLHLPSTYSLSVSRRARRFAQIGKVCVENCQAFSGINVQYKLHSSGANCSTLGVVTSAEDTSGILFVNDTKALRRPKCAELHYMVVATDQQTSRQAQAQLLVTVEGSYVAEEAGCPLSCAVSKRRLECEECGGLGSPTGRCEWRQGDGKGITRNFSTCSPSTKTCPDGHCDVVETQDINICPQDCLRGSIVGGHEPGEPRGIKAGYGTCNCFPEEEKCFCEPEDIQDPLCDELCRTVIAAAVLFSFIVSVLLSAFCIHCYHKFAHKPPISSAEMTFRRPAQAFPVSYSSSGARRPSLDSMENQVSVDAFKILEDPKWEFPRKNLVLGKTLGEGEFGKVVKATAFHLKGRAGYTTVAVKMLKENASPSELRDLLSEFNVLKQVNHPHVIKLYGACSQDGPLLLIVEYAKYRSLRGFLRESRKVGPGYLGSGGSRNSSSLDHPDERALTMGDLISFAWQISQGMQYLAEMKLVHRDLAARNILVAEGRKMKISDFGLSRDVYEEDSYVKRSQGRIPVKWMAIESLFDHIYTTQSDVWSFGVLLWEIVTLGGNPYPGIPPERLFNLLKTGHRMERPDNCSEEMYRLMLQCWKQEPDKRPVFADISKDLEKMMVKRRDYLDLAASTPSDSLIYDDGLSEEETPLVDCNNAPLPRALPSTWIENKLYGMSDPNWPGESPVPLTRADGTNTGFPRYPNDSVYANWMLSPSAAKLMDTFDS
Proto-oncogene tyrosine-protein kinase receptor Ret [V804M], sequence (P07949 29-1114 V804M limits assumed): as the sequence (P07949 29-1114 G810R limits assumed) above, with V776M, R782G counted along it

Molecule `CCOc1cc(-c2ccc(N3C[C@H](Oc4ccccn4)[C@@H](N)C3)nc2)c2c3cn[nH]c3nn2c1` [US20240174674, Compound 31] came in with an IC50 in test [1] of 2.6 nM.

`CCOc1cc(-c2ccc(N3CC[C@H](NC(=O)CC(C)C)[C@H](O)C3)nc2)c2c3cn[nH]c3nn2c1` [US20240174674, Compound 40]: the IC50 in test [1] is 2.2 nM; in test [2] it was 0.1 nM.

In the case of `CCOc1cc(-c2ccc(N3C[C@H]4C[C@@H](NC(=O)c5c(F)cccc5Cl)C[C@H]4C3)nc2)c2c3cn[nH]c3nn2c1` [US20240174674, Compound 176], it took 12.1 nM to reach half-maximal inhibition in test [1] (IC50).

For the molecule `CCOc1cc(-c2ccc(N3CC[C@H](NC(=O)c4ncc(F)cc4Cl)[C@H](O)C3)nc2)c2c3cn[nH]c3nn2c1` [US20240174674, Compound 285], in test [1], the half-inhibitory concentration (IC50) came to 5 nM.

Broadly, the IC50 is the concentration that inhibits the measured activity by half. Higher therefore signals lower potency.
